The test system of one data set is severe IBD. In kind it is in vivo, human. The source says:
During the year following acute bowels infection and inflammation described in above (Example 1 e) they were placed by a specialist MD into queue for demanding operation to remove inflammation prone part from their bowels. While waiting for this operation (roughly a year from above described previous serious bowels inflammation (IBD)) S4 got serious IBD again. This happened as a follow up of two-week business trip during which the diet was not at all optimal and working was rather intensive.
By Saturday the symptoms were so severe that S4 could not walk properly. It was decided that […] rests for the weekend and goes to a doctor on Monday morning.
Because based on Example 1 e it is already known that the DGA Activation can efficiently reduce IBD in S4, it was decided that S4 starts using DGA immediately to reduce the inflammation. (Also, all other information presented in this application, including all other experiments and dose response analyses were available already, except for Example 1 g.) Initial dose was set relatively high because the inflammation was very severe and because it is known from all other experiments that there were no negative effects for S4 from the DGA Activation. 3×200 mg mixed into 2 dl of water was taken 3 times during Saturday, first dose at 0300 pm, next dose 2 hours thereafter and the last dose 4 hours after the second dose, i.e. at 0900 pm. Inflammatory symptoms remained high but fever reduced from 36.80 Celsius (before DGA activation) to 36.03 by 0939 pm. Paracetamol (1000 mg) was taken after the last fever measurement thus not affecting the decline. Another paracetamol was taken earlier the day at 0346 pm.

The subject of the next data set is CRP. As to the kind of experiment: Blood CRP in continuous IPA/Dry Eye disease model. The class given is in vivo, mice. The method, then:
Tear volume was measured for groups 3 and 4 and later comparison results for group 2 were received. The blood samples were collected from saphenous vein on day 5 (prior the treatment) and on day 7, just prior anesthesia and during the perfusion (cardiac puncture). On day 7, the animals were terminally anesthetized and transcardially perfused. Plasma was separated in all collected blood samples and kept frozen at −80° C. until the measurements. CRP measurements were performed using mouse CRP ELISA kit. […] In addition, animals were monitored daily for general health status. The lacrimal glands were embedded into paraffin, sectioned, stained and analyzed for possible pathology.
In this Example, CRP results from 3 separate preclinical tests are presented and analyzed. […] CRP present in mouse serum samples were analyzed using mouse CRP ELISA kit (GWB-3B960E, Genway Biotech Inc.). […]
In two other CRP tests, the effect of the DGA Activation in two disease models, continuous vs. discontinuous was analyzed. […] Logarithmic change of blood CRP during the 7-day disease follow up period of each mouse in all groups was calculated and the averages are presented in FIGS. 4b and 4c. […]
Brief description of the disease models: 1) continuous IPA -model (see Example 1a) and 2) discontinuous MPTP/PD -model. […] Diet consumption per cage is monitored carefully before and during the study follow-up period. […]

The next data set has as its system fever. Description: Acute fever response in two humans under infection, Example 4. In kind it is in vivo, human. How it is done: FIG. 11: Numerical values of short term reduction in fever in disease after the DGA Activation (administration approximately 300 mg of D-glyceric acid mixed in water as calcium salt (=2× 200 mg of DGAcs). The results in this table are presented graphically in FIG. 5 and explained in Example 4. Additional Notes: 300 mg of D-glyceric acid is more precisely the same as 430 mg of calcium salt dehydrate formulation, because one calcium atom and 2 water molecules make up some 30% of the total molecular weight. *) Reduction in fever materialized but the symptoms of the disease e.g. pain remained. **) Rather stressful “absent day from work arrangements” by e-mail between 0 minutes and 15 minutes' measurements could possibly have kept fever up.
In Example 4 acute 15 min, 30 min, etc. fever responses of the DGA Activation in two individual under viral and/or bacterial infection (subjects S1 and S4 from e.g. Examples 1b-1f) were measured. Results are presented in graphical format in FIG. 5 and in numeric format in FIG. 11. The measurements of body temperatures after the DGA Activation were made in physiological state where infections (diseases) continue but they have nevertheless more or less stabilized. In this kind of a situation the immune system is activated above healthy and/or subclinical level. The objective was to verify possible spillover effects from reduction in inflammation and in oxidative stress towards fever. At the same the target was to gain more info on the size of suitable administration. (Before initiating any human tests full proof of safety was received from 3 week in vivo experiments with rats. The doses used in these clinical tests are at maximum less than 5% of the safe doses with rats in the 3-week safety tests.)

The structures appear in SMILES notation. Like-named read-outs stand apart in the source and are kept apart here.

The record followed here is US20190008810A1, “METHOD FOR PREVENTION, TREATMENT AND ALLEVIATION OF INFECTIOUS DISEASES AND DISORDERS” (REPLICON HEALTH OY, priority 2016, published 2019).

`O=C(O)[C@H](O)CO` [DGA, D-glyceric acid]: the “time to restoring defecation” value with severe IBD (S4) lay within 12 to 16 h. Besides, the “Blood CRP” value in the data set on severe IBD (S4, Friday 1100 am) was found to be 11. In the data set on severe IBD (S4, Monday 0030 pm, 3×200 mg four times a day), this compound came in with a CRP level of 85. Further, the fever with severe IBD (S4, Saturday 0939 pm after 3 doses of 3×200 mg, 36.80 before) is given as 36.03 Celsius; with severe IBD (S4, Sunday 0115 pm, normal 36.1), 35.83; in the data set on severe IBD (S4, Sunday 0145) it was 36.16. In the data set with severe IBD (S4, Wednesday noon, without antibiotics), this compound yielded a CRP of 22. Besides, in the data set on severe IBD (in vivo), the side effects result is reported as “did not cause any side effects”. In addition, the “survival and health parameters” value in the data set on CRP (4+7-day administration) was “improved survival and health parameters”. Also, the “blood CRP change vs 0-control” value with CRP (7-day IPA after 4-day priming, p-value=0.027) is on record as “increased statistically significantly”. Besides, the “reducing fever due to infection” value with fever (2×200 mg oral dose mixed into water) was “very effective in reducing fever”. In addition, in the data set with fever (S1, 1×200 mg, Monday 0908 pm), the “immediate impact on fever” value is “didn't seem to have any significant immediate impact on fever”. Also, in the data set with fever (S1 and S4), the return of fever entry is given as “returns almost to the starting level in 1 hour or at least in 1.5 hours”. For the same compound, the “time to reduction of fever” value with fever (S1 and S4, 2×200 mg of DGAcs in water) is 15 to 30 min. The decline of fever entry in the data set with fever (statistically very significant) is “modest”.
